# Test results published in a compilation of properties of binary mixtures (doi:10.1016/j.jtice.2008.09.006).
# Experiment: xn = mol fraction of the nth substance listed
# Conditions: 101 kPa
smiles,measurement,setting,value
CCCC[n+]1ccn(C)c1.F[P-](F)(F)(F)(F)F + O,electrical conductivity,"293.2 K, x2 = 0.05",0.181 S/m
same,electrical conductivity,"293.2 K, x2 = 0.15",0.235 S/m
same,electrical conductivity,"293.2 K, x2 = 0.2",0.29 S/m
same,electrical conductivity,"298.2 K, x2 = 0.1",0.268 S/m
same,electrical conductivity,"298.2 K, x2 = 0.2",0.364 S/m
same,electrical conductivity,"303.2 K, x2 = 0.05",0.291 S/m
same,electrical conductivity,"303.2 K, x2 = 0.1",0.331 S/m
same,electrical conductivity,"303.2 K, x2 = 0.15",0.382 S/m
same,electrical conductivity,"303.2 K, x2 = 0.2",0.448 S/m
same,electrical conductivity,"308.2 K, x2 = 0.05",0.351 S/m
same,electrical conductivity,"308.2 K, x2 = 0.15",0.469 S/m
same,electrical conductivity,"313.2 K, x2 = 0.05",0.423 S/m
same,electrical conductivity,"313.2 K, x2 = 0.1",0.488 S/m
same,electrical conductivity,"313.2 K, x2 = 0.2",0.652 S/m
same,electrical conductivity,"318.2 K, x2 = 0.1",0.563 S/m
same,electrical conductivity,"318.2 K, x2 = 0.15",0.675 S/m
same,electrical conductivity,"323.2 K, x2 = 0.05",0.592 S/m
same,electrical conductivity,"323.2 K, x2 = 0.15",0.792 S/m
same,electrical conductivity,"323.2 K, x2 = 0.2",0.911 S/m
same,electrical conductivity,"333.2 K, x2 = 0.05",0.701 S/m
same,electrical conductivity,"333.2 K, x2 = 0.1",0.797 S/m
same,electrical conductivity,"333.2 K, x2 = 0.15",0.923 S/m
same,electrical conductivity,"343.2 K, x2 = 0.05",0.833 S/m
same,electrical conductivity,"343.2 K, x2 = 0.1",0.928 S/m
same,electrical conductivity,"343.2 K, x2 = 0.2",1.23 S/m
same,electrical conductivity,"353.2 K, x2 = 0.05",1.06 S/m
same,electrical conductivity,"353.2 K, x2 = 0.1",1.22 S/m
